Source: PubChem BioAssay AID2060500 (Molecular Pharmacology Branch, DTP, NCI, 2025)
Where “and” joins values, the source holds several entries; their conditions need not be identical. Equal entries are not always repeated.

Test system: 596521-263-R-J1-PDC complex spheroids, viability % of control
Assay: Anticancer human tumor 596521-263-R-J1-PDC patient-derived soft tissue sarcoma cell line growth inhibition [GQUAD]
Settings: for viability, T/C: stronger effect = lower value; active = viability on the fitted dose curve at most 10% of control; inactive = the rest
Source text: DNA G-quadruplex Stabilizer Agents in Combinations in Complex Spheroids
A high-throughput screen of multi-cell type tumor spheroids was designed to identify active combinations of DNA G-quadruplex stabilizer agents and targeted small molecules. Complex spheroids include a stromal component modeled by human endothelial cells (HUVEC) and fibroblasts modeled by human mesenchymal stem cells (MSCs). The concentration ranges selected for each drug and investigational agent were based upon clinically achievable concentrations if the clinical Cmax of the agent was known.
Compounds. The drugs and investigational agents: pidnarulex (CX-5461; NSC782164), APTO-253 (NSC789042), BRACO-19 (NSC847499), peposertib (NSC802822), ceralasertib (NSC780249), elimusertib (NSC800525), camonsertib (NSC841442), AZD-1390 (NSC803789), olaparib (NSC753686), talazoparib (NSC767125), ART-558 (NSC835418), sotorasib (NSC818433), MRTX-1133 (NSC836407), SN-38 (NSC673596), topotecan (NSC609699), etoposide (NSC141540), doxorubicin (NSC123127), gemcitabine (NSC613327), 5-fluorouracil (NSC19893), paclitaxel (NSC125973), vemurafenib (NSC761431), panobinostat (NSC761190), R-306465 (JNJ-16241199; NSC773264), adavosertib (NSC754352), TP-3654 (NSC805149), carboplatin (NSC241240), KSQ-4279 (NSC840948), and staurosporine (NSC755774) were obtained from the National Cancer Institute (NCI) Developmental Therapeutics Program Chemical Repository (34). The FDA-approved anticancer drug set is available from the NCI Developmental Therapeutics Program. […] The stock solutions were prepared in dimethyl sulfoxide (DMSO, Sigma-Aldrich, St. Louis, MO, cat. D2650) at 800-fold the tested concentration and stored at -70 degrees C prior to their use. All drugs and investigational agents were tested over a range starting from a high concentration at or near the clinical Cmax and decreasing in half-log increments. If the clinical Cmax for an agent had not been determined, the highest concentration tested was 10 microM.
2.3 Cell Culture. All cells were maintained in an incubator at 37 degrees C and 5% CO2 with 95% humidity. The PDC lines were cultured according to standard operating procedures established by the NCI PDMR. All PDCs were thawed and cultured in Matrigel-coated flasks prepared with a working solution of 1X Ham's F-12 nutrient mix, without supplementation (Invitrogen, cat. 11765054), 100 U/mL penicillin-streptomycin (Invitrogen, cat. 15140122), and 2.5% Matrigel (Corning Inc., cat. 354248) for the first three passages. The 857933-349-R-J2-PDC line was cultured in 6C/Colon 1B media, which includes advanced DMEM/F-12 (Thermo Fisher Scientific, cat. 12634028), 10 mM HEPES (Thermo Fisher Scientific, cat. 15630080), 1X GlutaMAX supplement (Thermo Fisher Scientific, cat. 35050061), 0.1 mg/mL primocin (InvivoGen, cat. ant-pm-2), 10% defined fetal bovine serum, heat inactivated (HyClone Laboratories Inc., cat. SH30070.03HI), 50% L-WRN conditioned media (ATCC, cat. CRL-3276), 1.25 mM N-Acetyl-L-cysteine (Sigma-Aldrich, cat. A9165), 10 mM nicotinamide (Sigma-Aldrich, cat. N0636), 1X B-27 supplement (Thermo Fisher Scientific, cat. 17504044), 1X N-2 supplement (Thermo Fisher Scientific, cat. 17502048), 10 microM Y-27632 dihydrochloride (Tocris Bioscience, cat. 1254), and 50 ng/mL human EGF recombinant protein (Thermo Fisher Scientific, cat. PHG0311). The 485176-168-R4-J1-PDC line was cultured in Panc media, which includes all 6C/Colon 1B media components plus 100 ng/mL human FGF-10 (Thermo Fisher Scientific, cat. 100-26), 500 nM SB-431542 (Selleckchem, cat. S1067), and gastrin (Tocris, cat. 3006).
[…]

[1] = curve of first compound, second compound 0.0316 µM
[2] = curve of first compound, second compound 0.1 µM
[3] = curve of first compound, second compound 0.316 µM
[4] = curve of first compound, second compound 1 µM
[5] = curve of first compound, second compound 3.16 µM
[6] = curve of first compound, second compound 10 µM
[7] = second compound 0.0316 µM, first compound 0.0316 µM
[8] = second compound 0.0316 µM, first compound 0.1 µM
[9] = second compound 0.0316 µM, first compound 0.316 µM
[10] = second compound 0.0316 µM, first compound 1 µM
[11] = second compound 0.0316 µM, first compound 3.16 µM
[12] = second compound 0.0316 µM, first compound 10 µM
[13] = second compound 0.1 µM, first compound 0.0316 µM
[14] = second compound 0.1 µM, first compound 0.1 µM
[15] = second compound 0.1 µM, first compound 0.316 µM
[16] = second compound 0.1 µM, first compound 1 µM
[17] = second compound 0.1 µM, first compound 3.16 µM
[18] = second compound 0.1 µM, first compound 10 µM
[19] = second compound 0.316 µM, first compound 0.0316 µM
[20] = second compound 0.316 µM, first compound 0.1 µM
[21] = second compound 0.316 µM, first compound 0.316 µM
[22] = second compound 0.316 µM, first compound 1 µM
[23] = second compound 0.316 µM, first compound 3.16 µM
[24] = second compound 0.316 µM, first compound 10 µM
[25] = second compound 1 µM, first compound 0.0316 µM
[26] = second compound 1 µM, first compound 0.1 µM
[27] = second compound 1 µM, first compound 0.316 µM
[28] = second compound 1 µM, first compound 1 µM
[29] = second compound 1 µM, first compound 3.16 µM
[30] = second compound 1 µM, first compound 10 µM
[31] = second compound 3.16 µM, first compound 0.0316 µM
[32] = second compound 3.16 µM, first compound 0.1 µM
[33] = second compound 3.16 µM, first compound 0.316 µM
[34] = second compound 3.16 µM, first compound 1 µM
[35] = second compound 3.16 µM, first compound 3.16 µM
[36] = second compound 3.16 µM, first compound 10 µM
[37] = second compound 10 µM, first compound 0.0316 µM
[38] = second compound 10 µM, first compound 0.1 µM
[39] = second compound 10 µM, first compound 0.316 µM
[40] = second compound 10 µM, first compound 1 µM
[41] = second compound 10 µM, first compound 3.16 µM
[42] = second compound 10 µM, first compound 10 µM
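Also: spheroids exposed to drugs for 7 days before viability reading.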

COc1cccc2c1C(=O)c1c(O)c3c(c(O)c1C2=O)CC(O)(C(=O)CO)CC3OC1CC(N)C(O)C(C)O1 (stereo not drawn) + Cc1[nH]c2ccc(F)cc2c1-c1nc2c3cccnc3c3ncccc3c2[nH]1
active: viability, T/C [12] 3.55% | viability, T/C [18] 4.66% | viability, T/C [24] 3.9% | viability, T/C [30] 4.37% | viability, T/C [36] 3.86% | viability, T/C [42] 3.33%
700 nM: IC50 [6]
578 nM: IC50 [4]
965 nM: IC50 [5]
802 nM: IC50 [3]
719 nM: IC50 [1]
655 nM: IC50 [2]
inactive: viability, T/C [7] 98% | viability, T/C [8] 76.6% | viability, T/C [9] 64% | viability, T/C [10] 48.9% | viability, T/C [11] 26.6% | viability, T/C [13] 93.8% | viability, T/C [14] 77% | viability, T/C [15] 57.9% | viability, T/C [16] 44.9% | viability, T/C [17] 29.7% | viability, T/C [19] 112% | viability, T/C [20] 70.3% | viability, T/C [21] 68% | viability, T/C [22] 54.5% | viability, T/C [23] 27.1% | viability, T/C [25] 96.5% | viability, T/C [26] 66.5% | viability, T/C [27] 59.2% | viability, T/C [28] 50.4% | viability, T/C [29] 25.6% | viability, T/C [31] 82.7% | viability, T/C [32] 68.9% | viability, T/C [33] 63.2% | viability, T/C [34] 54.9% | viability, T/C [35] 25.7% | viability, T/C [37] 75.1% | viability, T/C [38] 62.4% | viability, T/C [39] 62.6% | viability, T/C [40] 45.9% | viability, T/C [41] 25.6%

Cc1cnc(CNC(=O)c2c(=O)c3ccc(N4CCCN(C)CC4)nc3n3c2sc2ccccc23)cn1
inactive: viability, T/C (compound 0.0316 µM) 99% [middle of 12 runs] | viability, T/C (compound 0.1 µM) 93.1% [middle of 12 runs] | viability, T/C (compound 0.316 µM) 80.5% [middle of 12 runs] | viability, T/C (compound 1 µM) 68% [middle of 12 runs] | viability, T/C (compound 3.16 µM) 56.4% [middle of 12 runs] | viability, T/C (compound 10 µM) 47.9% [middle of 12 runs]

COc1ncnc(C2CC2)c1-c1ncc2cnn(Cc3ccc(-c4nc(C(F)(F)F)cn4C(C)C)cc3)c2n1
inactive: viability, T/C (compound 0.0316 µM) 98.6% and 108% and 92.8% | viability, T/C (compound 0.1 µM) 105% and 94.8% and 99.3% | viability, T/C (compound 0.316 µM) 97.8% and 85.6% and 98.5% | viability, T/C (compound 1 µM) 100% and 65.5% and 81.5% | viability, T/C (compound 3.16 µM) 99.2% and 28.8% and 94.3%
> 10000 nM and 1580 nM: IC50 (curve of compound)

CC1COCCN1c1cc(C2(S(C)(=N)=O)CC2)nc(-c2ccnc3[nH]ccc23)n1 (stereo not drawn)
> 10000 nM and 7960 nM: IC50 (curve of compound)
inactive: viability, T/C (compound 0.0316 µM) 95.1% and 98% and 118% | viability, T/C (compound 0.1 µM) 110% and 95.7% and 101% | viability, T/C (compound 0.316 µM) 84.8% and 84.3% and 101% | viability, T/C (compound 1 µM) 83.6% and 72.9% and 77.3% | viability, T/C (compound 3.16 µM) 73.7% and 63.8% and 58% | viability, T/C (compound 10 µM) 52.1% and 46.3% and 51.5%

CC(C)n1c(=O)n(C)c2cnc3cc(F)c(-c4ccc(OCCCN5CCCCC5)nc4)cc3c21 + Cc1cnc(CNC(=O)c2c(=O)c3ccc(N4CCCN(C)CC4)nc3n3c2sc2ccccc23)cn1
< 31.6 nM: IC50 [6]
inactive: viability, T/C [7] 82.1% | viability, T/C [8] 67% | viability, T/C [9] 78.3% | viability, T/C [10] 73% | viability, T/C [11] 75.5% | viability, T/C [12] 61.9% | viability, T/C [13] 70.6% | viability, T/C [14] 61.3% | viability, T/C [15] 68.2% | viability, T/C [16] 63.9% | viability, T/C [17] 58.6% | viability, T/C [18] 57.8% | viability, T/C [19] 69.3% | viability, T/C [20] 67.3% | viability, T/C [21] 63.5% | viability, T/C [22] 62.5% | viability, T/C [23] 62.4% | viability, T/C [24] 47.6% | viability, T/C [25] 63.8% | viability, T/C [26] 61.8% | viability, T/C [27] 52.3% | viability, T/C [28] 54.3% | viability, T/C [29] 64.4% | viability, T/C [30] 48.3% | viability, T/C [31] 51.6% | viability, T/C [32] 53.3% | viability, T/C [33] 49.7% | viability, T/C [34] 46.4% | viability, T/C [35] 42.5% | viability, T/C [36] 40.3% | viability, T/C [37] 51.8% | viability, T/C [38] 44.7% | viability, T/C [39] 44.9% | viability, T/C [40] 44.9% | viability, T/C [41] 46.7% | viability, T/C [42] 9.8%
224 nM: IC50 [5]
> 10000 nM: IC50 [1] | IC50 [2] | IC50 [3] | IC50 [4]
